Measured values published in patent EP4623928A1, “GLP-1R ANTAGONISTS FOR THE TREATMENT OF CANCER” (Fiorina, Paolo, priority 2024, dated 2025).

What was measured:
[1] = tested on: GLP-1R^pos and GLP-1R^neg CD3^+ T cells; test: Seahorse bioenergetic analysis, GLP-1Rpos and GLP-1Rneg CD3+ T cells; type: cell-based, C57BL/6 mice; conditions: GLP-1R^pos CD3^+ T cells, Exe-4 (1 nM)
Method: Cellular Bioenergetics were analyzed using the Seahorse Extracellular Flux Analyzer Xfe96 (Agilent Technologies, Santa Clara, CA, United States), which simultaneously measures Oxygen Consumption Rate (OCR, pmolO2/min), ExtraCellular Acidification Rate (ECAR, mpH/min) and Proton Efflux Rate (PER, pmolH^+/min). For Seahorse experiments 150.000 cells either freshly isolated GLP-1R^pos or GLP-1R^neg CD3^+ T cells or activated with soluble anti-CD3/CD28 at 0.5 µg/ml each in the presence or not of Exe-4 (1 nM); in another setting untransduced mock CD3^+ T cells or pmY-GLP-1R CD3^+ T cells already activated with soluble anti-CD3/CD28 at 0.5 µg/ml each in the presence or not of Exe-4 (1 nM). Cells were resuspended in 50 µL assay medium (Agilent #103576-100 RPMI Medium pH7.4, supplemented with 10mM glucose, 2mM glutamine and 1mM Na-pyruvate) were seeded in each CellTak-precoated well of an Agilent Xfe96 Pro well plate. The cell plate was centrifuged 2 times at 40 × g (zero braking) for 1 minute. After centrifugation, 150 µL warm assay medium was gently added to each well. […]
Seahorse parameters were normalized to cell number in each well. To this purpose, at the end of the Seahorse analysis, cell nuclei were stained with Hoechst 33342 (1 µg/mL) for about 15 min, imaged and counted with Operetta CLS™ software Harmony, as previously described (43). […]

[2] = tested on: untransduced-mock and pmY-GLP-1R transduced CD3^+ T cells; test: Transwell migration assay toward SDF-1, mock and pmY-GLP-1R transduced CD3+ T cells; type: cell-based, murine; conditions: both untransduced-mock and pmY-GLP-1R transduced CD3^+ T cells, Exe-4 (1 nM)
Method: (§1) Transwell migration assays were performed on GLP-1R^pos and GLP-1R^neg CD3^+ cells or respectively untransduced-mock CD3^+ T cells or pmY-GLP-1R transduced CD3^+ T cells, freshly isolated or activated with anti-CD3/CD28 (0.5 µg /ml each) in the presence or not of Exe-4 (1 nM). Chemotaxis assessments via transwell migration assay were performed using polycarbonate membranes with 5 µm pores (Corning) in accordance with the manufacturer's instructions and as previously published (42). Cells were washed, re-suspended in migration media (RPMI), and added to the upper chamber of the plate, while migration media containing 0 or 50 ng/mL SDF-1 (R&D Systems) was added to the bottom chamber. Treated cells were incubated over night at 37°C to migrate through the polycarbonate membrane into the bottom chamber. Input cell counts were obtained by flow cytometry with a BD FACSCelesta (BD, Biosciences) as well as cell counts of migrated cells in the lower chambers. Migration percentage was calculated as the number of cells in the lower chamber (migrated) compared to total input cell count for three separate wells. Mean migration percentages and standard deviations (SD) were calculated across the different donor cell lots. Analysis of lower chambers without SDF-1 (negative gradients) was used to control for any nonspecific increase in chemotaxis.

[3] = tested on: mitogen-stimulated murine splenocytes; test: IFN-γ ELISpot assay on anti-CD3/anti-CD28 stimulated splenocytes; type: cell-based, C57BL/6 mice; conditions: Exe-4 at 0.1, 1 or 10 nM, soluble anti-CD3 and anti-CD28, 24 hours
Method: An ELISPOT assay was used to measure the number of IFN-γ-producing cells according to the manufacturer's protocol (BD Biosciences) as previously performed by our group (39). To test the role of GLP-1R-driven immunity on the anti-CD3/28 non-autoimmune specific response, 1×10^6 splenocytes isolated from C57BL/6 mice were cultured in a microwell plate (BD Biosciences) coated with IFN-y capture antibody (Ab) in the presence of the following soluble anti-CD3 and anti-CD28 at 0,5ug/ml for 24 hours. Exe-4 and/or Exe-4+Exe-9-39 at concentrations of 0.1, 1 or 10 nM were added to the culture. After 24 hours, bound secondary Ab was visualized using HRP-streptavidin and the AEC substrate kit (BD Biosciences). Spots were counted using an Immunospot analyzer (Cellular Technology Ltd., Cleveland, OH) and expressed as the number of cytokine-producing spots per 1×10^6 cells. After 24hours, ELISpot plates were developed and acquired on an ELISpot reader, as previously described.

[4] = tested on: GLP-1R^pos and GLP-1R^neg CD3^+ T cells; test: Transwell migration assay toward SDF-1, GLP-1Rpos and GLP-1Rneg CD3+ T cells; type: cell-based, C57BL/6 mice; conditions: GLP-1R^neg CD3^+ T cells only, Exe-4 (1 nM), SDF-1 gradient
Method: as §1

Substance: Exendin-4 [Exe-4]
- mitochondrial ATP production [1]: no effect
- mitochondrial respiration (OCR values, maximal OXPHOS) [1]: slightly increased
- migratory ability in response to SDF-1 [2]: reduced
- number of IFN-y producing cells [3]: significantly reduced
- migratory potential [4]: reduced
